The record followed here is patent US11873267B2, “Functionalized N,N-dialkylamino phenyl ethers and their method of use” (Temple University-Of The Commonwealth System of Higher …, priority 2016, dated 2024).

Assay [1] deals with Gaucher patient fibroblasts (Coreill Institute, GM08760). Put plainly: GPN induced calcium release phenotypic assay on Gaucher patient fibroblasts. It is filed as cell-based, human. The settings on record: for Maximal % Change in GPN Response: ratio of GPN response with drug / without drug x 100; for EC50: Homo sapiens, Fibroblast, 12-point dilution curve in triplicate.
The test system of assay [2] is β-Glucocerebrosidase (GCase). Put plainly: β-Glucocerebrosidase (GCase) activity in lysates of compound-treated Gaucher patient fibroblasts (4-MUG substrate). The assay is classed as cell-based, human. As to conditions: 10 μM, 3 days, Gaucher patient fibroblast lysates, no change = 1. How it is done: Cellular lysates were prepared from compound treated cells and non-treated cells were included as a control. β-Glucocerebrosidase (GCase) activity was directly measured from lysates prepared from treated cells using a fluorescent substrate 4-methylumbelliferyl-β-D-glucopyranoside (MUG). Cells were washed 3× with phosphate-buffered saline (PBS) and detached by scraping. After centrifugation, The pellets were frozen on dry ice, thawed and lysed in McIlvaine (MI) buffer (100 mM sodium citrate, 200 mM sodium phosphate dibasic, 0.25% sodium taurocholate, and 0.1% Triton X-100, pH 5.2 containing protease inhibitors). Lysates are incubated with 3.0 mM 4-methylumbeliferryl-β-glucoside (4-MUG) substrate in MI buffer (50 μL) at 37° C. for 60 minutes. Reactions were stopped by addition of 0.4 M glycine, pH 10.6 (70 μL). Fluorescence was measured on a Clariostar plate reader (BMG Labtech) for one second per well using 355 nm excitation and 460 nm emission. Total protein was determined with the Bradford protein assay kit (BioRad) according to the manufacturer's instructions. The GCase activity measured after compound treatment is normalized to non-treated cells and expressed as relative activity where no change in GCAse activity is equal 1 (FIG. 3).

For assay [3], the system named is Wild-type patient fibroblasts (Coriell Institute, GM 005659). As to conditions: wild type patient cells. How it is done:
Gaucher patient fibroblasts (Coreill Institute, GM08760) were cultured in EMEM with 15% FBS, 1% Pen/Strep at 37° C./5% CO2. Wild-type patient fibroblasts (Coriell Institute, GM 005659) were used as a control cell line. Cells are plated with a MultiFlo dispenser (800 cells/well in 30 μL of complete growth media) in black/clear bottom 384-well plates and cultured for 24 hours at 37° C., 5% CO2. Compounds of the disclosure are then added to the cells (12 point dose response curve, 150 nM to 30 uM final compound concentration using a 5.0 μL of a 7× stock solution (1.05 μM to 210 μM)) under sterile conditions and continued in culture for 72 hours at 37° C., 5% CO2. […] The data from each well were normalized with basal fluorescence by dividing the maximum fluorescence over the entire real time reading by the initial basal fluorescence.
Cells (800 cells/well) were plated with a MultiFlo dispenser (BioTek) and cultured for 24 h at 37° C., 5% CO2. […] Cells were loaded with Screen Quest™ Fluo-8 No Wash Calcium mix (ATT Bio) and analyzed for changes in response to GPN. The data from each well were normalized with basal fluorescence by dividing the maximum fluorescence over the entire real time reading by the initial basal fluorescence. […] EC50 and Hill slope values are determined using a four-parameter dose-response (variable slope) equation in GraphPad Prism.

Setting [4] is: Gaucher patient cells, 72 hours compound treatment.

Where a name gives a salt, the structure may show the parent alone.

Regarding `CCCCC(=Cc1ccc(OCCN(C)C)cc1)c1ccccc1` (stereo in doubt) [Example 4, (Z)—N,N-dimethyl-2-(4-(2-phenylhex-1-en-1-yl)phenoxy)ethan-1-amine trifluoroacetate], in assay [1] (setting [4]), the “Maximal % Change in GPN Response” value is reported as 56% and the EC50 (usually the concentration needed to bring the measured effect to its halfway point) came to 7.2 µM.

For `CC/C(=C\c1ccc(OCCN(C)C)cc1)c1ccccc1` [Example 1, (E)-N,N-Dimethyl-2-(4-(2-(phenyl)but-1-en-1-yl)phenoxy)ethan-1-amine], in assay [1] (setting [4]), the “Maximal % Change in GPN Response” value amounted to 70% and the EC50 worked out at 6 µM.

`CC/C(=C/c1ccc(OCCN(C)C)cc1)c1ccccc1` [Example 2, (Z)—N,N-Dimethyl-2-(4-(2-(phenyl)but-1-en-1-yl)phenoxy)ethan-1-amine trifluoroacetate]: in assay [1] (setting [4]), the “Maximal % Change in GPN Response” value is given as 62% and the EC50 was found to be 14.1 µM.

As to `CC/C(=C\c1ccc(OCCN2CCCC2)cc1)c1ccccc1` [Example 3, (E)-1-(2-(4-(2-phenylbut-1-en-1-yl)phenoxy)ethyl)pyrrolidine], in assay [1] (setting [4]), the “Maximal % Change in GPN Response” value was 175% and the EC50 is 5.3 µM.

Consider `C/C(=C/c1ccc(OCCN2CCCC2)cc1)c1ccccc1` [Example 5, (Z)-1-(2-(4-(2-phenylprop-1-en-1-yl)phenoxy)ethyl)pyrrolidine], for which, in assay [1] (setting [4]), the “Maximal % Change in GPN Response” value came to 72% and the EC50 stood at 2.1 µM.

Turning to `CC/C(=C/c1ccc(OCCN(C)C)cc1)c1ccc([N+](=O)[O-])cc1` [Example 6, (Z)—N,N-Dimethyl-2-(4-(2-(4-nitrophenyl)but-1-en-1-yl)phenoxy) ethan-1-amine], in assay [1] (setting [4]), the “Maximal % Change in GPN Response” value worked out at 47% and the EC50 was 4.3 µM.

As for `CC/C(=C\c1ccccc1)c1ccc(OCCN(C)C)cc1` [Example 9, (E)-N,N-Dimethyl-2-(4-(1-phenylbut-1-en-2-yl)phenoxy)ethan-1-amine], in assay [1] (setting [4]), the “Maximal % Change in GPN Response” value worked out at 53% and the EC50 amounted to 3 µM.

As to `CC/C(=C\c1ccccc1)c1ccc(OCCN2CCCC2)cc1` [Example 10, (E)-1-(2-(4-(1-Phenylbut-1-en-2-yl)phenoxy)ethyl)pyrrolidine], in assay [1] (setting [4]), the “Maximal % Change in GPN Response” value is on record as 48% and the EC50 was 1.1 µM.

Consider `CC(C)C(C(=O)c1ccc(OCCN(C)C)cc1)c1ccccc1` (stereo not drawn) [Example 11, 1-(4-(2-Dimethylaminoethoxy)-phenyl)-3-methyl-2-phenylbutan-1-one], for which, in assay [1] (setting [4]), the “Maximal % Change in GPN Response” value was 54% and the EC50 came to 3.3 µM.

Take `CC(C)CCC(C(=O)c1ccc(OCCN(C)C)cc1)c1ccccc1` (stereo not drawn) [Example 13]: in assay [1] (setting [4]), the “Maximal % Change in GPN Response” value is recorded as 191% and the 50% effective concentration (EC50) amounted to 1.5 µM.

Take `CC(C)CC(C(=O)c1ccc(OCCN(C)C)cc1)c1ccccc1` (stereo not drawn) [Example 14, 1-(4-(2-(Dimethylamino)ethoxy)phenyl)-4-methyl-2-phenylpentan-1-one]: in assay [1] (setting [4]), the “Maximal % Change in GPN Response” value stood at 108% and the EC50 turned out to be 0.7 µM.

On to `C=Cc1ccccc1C(CCCC)C(=O)c1ccc(OCCN(C)C)cc1` (stereo not drawn) [Example 15, 1-(4-(2-(dimethylamino)ethoxy)phenyl)-2-(2-vinylphenyl)hexan-1-one], for which, in assay [1] (setting [4]), the “Maximal % Change in GPN Response” value is recorded as 217% and the EC50 turned out to be 2.7 µM.

On to `CCCCC(C(=O)c1ccc(OCCN(C)C)cc1)c1ccccc1CC` (stereo not drawn) [Example 16, 1-(4-(2-(dimethylamino)ethoxy)phenyl)-2-(2-ethylphenyl)hexan-1-one], for which, in assay [1] (setting [4]), the “Maximal % Change in GPN Response” value is 138% and the 50% effective concentration (EC50) amounted to 0.65 µM.

As to `C=C(C)c1ccccc1C(CCCC)C(=O)c1ccc(OCCN(C)C)cc1` (stereo not drawn) [Example 17], in assay [1] (setting [4]), the “Maximal % Change in GPN Response” value amounted to 275% and the EC50 was determined as 2.2 µM.

Regarding `CCCCC(C(=O)c1ccc(OCCN(C)C)cc1)c1ccccc1C(C)C` (stereo not drawn) [Example 18, 1-(4-(2-(Dimethylamino)ethoxy)phenyl)-2-(2-isopropylphenyl)hexan-1-one], in assay [1] (setting [4]), the “Maximal % Change in GPN Response” value came out at 233% and the EC50 turned out to be 0.33 µM.

Turning to `CCCCC(C(=O)c1ccc(OCCN(C)C)cc1)c1ccccc1` (stereo not drawn) [MC150235, 1-(4-(2-(Dimethylamino)ethoxy)phenyl)-2-phenylhexan-1-one], the “GCase activity relative to non-treated cells” value in assay [2] is “increase in GCase activity”. In assay [1] (setting [4]), the “Maximal % Change in GPN Response” value worked out at 87% and the EC50 came out at 2.4 µM.

Regarding `CCC(Cc1ccc(OCCN(C)C)cc1)c1ccccc1` (stereo not drawn) [MC210155, N,N-Dimethyl-2-(4-(2-phenylbutyl)phenoxy)ethan-1-amine trifluoroacetate], the “GCase activity relative to non-treated cells” value in assay [2] is listed as “increase in GCase activity”. Moreover, in assay [1] (setting [4]), the “Maximal % Change in GPN Response” value is on record as 154% and the half-maximal effective concentration (EC50) worked out at 4.8 µM.

As to `CC/C(=C(\c1ccccc1)c1ccc(OCCN(C)C)cc1)c1ccccc1` [Tamoxifen, reference compound], the “increase in GPN-induced calcium response” value in assay [3] is listed as 40+/−20%. Moreover, the “increase in calcium response compared with 0.1% DMSO treated Gaucher patient cells” value in assay [1] (72 hours compound treatment, GPN response) is listed as 200±50%. In addition, the “activity to increase lysosomal calcium signaling (Prestwick Chemical Library screen)” value in assay [1] (Gaucher patient cells, 72 hours, confirmed in triplicate) is “active compound”.
